# Literature values in US20190021998A1, “TOPICAL NANOEMULSION THERAPY FOR WOUNDS” (THE REGENTS OF THE UNIVERSITY OF MICHIGAN, priority 2014, published 2019).
# Conditions: footnote *
smiles,measurement,value
"CCCCCCCCCCCCCCCCCC[N+](C)(C)CCCCCCCCCCCCCCCCCC [DODAC, Dioctadecyl dimethyl ammonium chloride]","CMC (mM), critical concentration for unilamellar vesicles",10* mM
